Measurements: publication PMC10375533, “Preference of Bacterial Rhamnosyltransferases for 6-Deoxysugars Reveals a Strategy To Deplete O-Antigens” (Journal of the American Chemical Society, 2023)
Values joined by “and” are separate entries in the source; they are usually repeats but may differ in a detail not shown here. Equal entries are not always repeated. Where two headings read alike, the source gives them in different places.

How the values were obtained:
E. coli WbbL = E. coli WbbL (Escherichia coli, UniProt P36667); assay: In vitro inhibition assay of E. coli WbbL with monosaccharides and compound 2; format: biochemical; settings: 250 µM dTDP-β-L-Rha, 1 mM GlcNAc-PP-undecaprenol
Method: Primers were purchased from Invitrogen and sequencing was completed by GENEWIZ (Azenta) or EtonBio. Chemicals were purchased from Sigma Aldrich, CarboSynth, Fisher Scientific, and Cayman without further purification. 1H, 13C, and 31P NMR spectra were recorded on a Bruker Avance III 400, 500, or 600 MHz instrument. All spectra were calibrated using residual non-deuterated solvent as an internal reference and processed using MestReNova (authorized to NYU). Gel filtration purification and analyses was performing using at AKTA pure 15 L instrument (UNICORN™ software, GE Healthcare). HRMS analyses were acquired on an Agilent 6224 Accurate-Mass time-of-flight LC/MS (LC-TOF) spectrometer equipped with an electrospray ionization (ESI) source with an autosampler. GraphPad Prism software 9.0 was used for all plotting and data analysis unless otherwise noted. Statistical significance of grouped data was assessed using paired t-tests in Prism. For the IC50 calculation, data were fit in Prism using the equation log(inhibitor) versus response (three parameters): y = bottom + (top-bottom)/(1+10^(X-log IC50)) based on the assumption the Hill slope would be 1, as predicted by ITC results with n ~ 1 for donor ligands. Data was normalized to controls without enzyme and with no inhibitor added. Confidence intervals were calculated based on the standard error. 1M TEAB buffer was prepared by suspending triethylamine (1 mol, 139 mL) in water (700 mL) and passing carbon dioxide (from evaporated dry ice) through the mixture until the pH=7.5. The buffer was diluted to 1L and stored as a stock solution at 4 °C. Prior to use it was diluted to 50 mM in deionized H2O […]
Methods for protein and cellular biochemistry/bioinformatics used in this study.
Bioinformatic approach to identify Thermus thermophilus RfbF as a putative glycolipid RT.
The Carbohydrate-Active Enzymes Database (CAZy.org) was used to identify thermophilic organisms with annotated glycosyltransferases (GTs).11-12 Genes annotated as wbbL have been experimentally shown to encode dTDP-rhamnosyltransferases that transfer L-Rha onto N-acetyl--a-D-glucosamine-1-diphospholipid acceptors.13-14 In Shigella flexneri, the protein encoded by rfbF was noted to carry out the same biochemical activity as WbbL based on genetic and LPS analyses.15-16 Both E. coli WbbL and S. flexneri RfbF belong to the GT2 family. A CAZy search for rfbF and wbbL was performed in the genomes of Gram-negative extreme thermophiles, which […]
(GenBank: AAS80876.1), which had not yet been biochemically characterized. Protein ANalysis […]
thermodynamic values were evaluated using ITCRun software (TA Instruments) and fit with a […]
Specific activities were determined by modification of the protocol outlined by Li et al. […]

T. thermophilus RfbF = T. thermophilus RfbF (Thermus thermophilus, UniProt Q72KB9); assay: Isothermal titration calorimetry (ITC) binding measurements with RfbF; settings: ITC
[1] = system: E. coli cells with or without wbbL; assay: Growth inhibition / toxicity of 2 with E. coli (OD600); settings: ~2 mM / low millimolar concentrations of 2, E. coli +/- wbbL
[2] = system: WbbL-dependent O-Ag synthesis in E. coli expressing wbbL; format: cell-based, Escherichia coli
crude Mtb WbbL = settings: cited from earlier work
[3] = 25 °C, ligand titrated into 110 µM RfbF

Chain of E. coli WbbL (P36667 whole entry, looked up): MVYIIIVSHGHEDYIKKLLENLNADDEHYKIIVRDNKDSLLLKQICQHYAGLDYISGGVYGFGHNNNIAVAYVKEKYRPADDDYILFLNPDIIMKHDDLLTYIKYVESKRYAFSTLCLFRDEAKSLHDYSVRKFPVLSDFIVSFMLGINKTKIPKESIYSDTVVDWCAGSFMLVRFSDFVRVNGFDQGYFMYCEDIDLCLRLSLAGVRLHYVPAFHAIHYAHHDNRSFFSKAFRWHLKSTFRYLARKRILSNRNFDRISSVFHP
Chain of T. thermophilus RfbF (Q72KB9 entry or part of it): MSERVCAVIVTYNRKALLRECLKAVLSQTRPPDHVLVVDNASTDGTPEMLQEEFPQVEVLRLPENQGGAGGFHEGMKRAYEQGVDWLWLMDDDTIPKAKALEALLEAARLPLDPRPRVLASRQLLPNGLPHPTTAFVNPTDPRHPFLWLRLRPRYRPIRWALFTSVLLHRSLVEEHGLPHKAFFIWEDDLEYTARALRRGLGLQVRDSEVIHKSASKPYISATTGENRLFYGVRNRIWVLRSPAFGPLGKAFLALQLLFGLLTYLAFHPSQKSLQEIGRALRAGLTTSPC

For `C[C@@H]1NC[C@H](O)[C@H](O)[C@H]1O` [compound 2, 1,5-dideoxy-1,5-imino-L-rhamnitol], the IC50 (E. coli WbbL; 0.0101 mg/mL E. coli WbbL, 95% confidence interval, read-out: half maximal inhibitory concentration (IC50)) was ~3000 µM and 3160 µM, the inhibition at 5000 µM (E. coli WbbL; 5 mM inhibitor, 8 min) was roughly 53% and the “binding to RfbF by ITC (in words)” value (T. thermophilus RfbF; ligand titrated into 110 µM RfbF) was “no measurable binding”. The Kd (T. thermophilus RfbF; KD (beyond measurable limit), 5-10 mM ligand titrated into 110 µM RfbF) was greater than 1000 µM, the “toxicity to E. coli (growth, OD600)” value [1] was “not toxic” and the “reduction of O-Ag levels by densitometry” value ([2]; E. coli expressing wbbL grown with 2 versus untreated, silver stain / anti-O16 blot of purified LPS) was roughly 40%. The “reduction of LPS produced versus untreated cells” value ([2]; E. coli expressing wbbL grown with ~2 mM 2, equivalent number of cells, mass of extracted LPS) was greater than 50%.
For `Cc1cn(C2CC(O)C(COP(=O)(O)OP(=O)(O)OC3OC(C)C(O)C(O)C3O)O2)c(=O)[nH]c1=O` [dTDP-β-L-Rha, reference compound], the Km (crude Mtb WbbL) is given as roughly 35 µM, the ΔG (T. thermophilus RfbF; [3]) is given as -6.77 (.38) kcal/mol and the ΔH (T. thermophilus RfbF; [3]) is given as -8.68 (0.59) kcal/mol. For the same molecule, the ΔS (T. thermophilus RfbF; [3]) was -6.43 (0.68) cal/mol·K, the Kd (T. thermophilus RfbF; 25 °C, ligand titrated into 110 µM RfbF, one-site model, spread = SD, triplicate, read-out: KD) was roughly 8 µM and the Kd (T. thermophilus RfbF; KD, 25 °C, ligand titrated into 110 µM RfbF, one-site model, spread = SD, triplicate) was 8.31 ± 3.66 µM.
